How the values were obtained:
[1] = tested on: genes that control fat accumulation in liver; experiment: Liver RNA expression of genes that control fat accumulation in ob/ob mice; format: in vivo, mouse; conditions: two weeks of treatment
Method: Following treatment, the organs were harvested and liver RNA was isolated to measure gene expression profiles. The expression levels of a panel of genes that function in the control of fat accumulation in liver were measured.

[2] = Unspecified biological assay; conditions: assay not specified
3T3L1 cells = experiment: Adipogenesis of 3T3L1 cells, Oil Red O staining for lipid accumulation; format: cell-based; conditions: 3T3L1 cells differentiated for eight days in increasing concentrations
Excerpt: FIG. 1 includes eight micrographs showing that the inhibition of BET protein family members blocks adipogenesis in a dose dependent manner in 3T3L1 cells, which is a cell line that is widely used as a model for adipogenesis. […] Following drug treatment cells were stained with Oil Red O as a measure of lipid accumulation that indicates the degree of adipocyte differentiation.
3T3L1 cells are a well characterized cell type that can be differentiated into fat cells that contain large lipid droplets. […] The cells were differentiated for eight days. On the final day, the cells were stained with Oil Red O, which stains for lipid accumulation in the cells.

ob/ob mice [3] = experiment: Weight gain, food intake and feed efficiency in ob/ob mouse obesity model; format: in vivo; conditions: 50 mg/kg, 14 days
Excerpt: FIGS. 3A-3E are graphs showing that inhibition of BET family members blocks weight gain in ob/ob mice, a murine obesity model that lacks leptin.
Ob/ob mice are a well established mouse obesity model that gains weight rapidly on a normal mouse chow diet. […] Without wishing to be bound by theory, it is likely that the disparity is due to differences in the way that ob/ob mice treated with JQ are metabolizing food relative to untreated ob/ob mice.

PPARγ = PPARγ gene expression in 3T3L1 cells during adipocyte differentiation (RT-PCR); format: cell-based; conditions: 500 nM, first four days of differentiation
Method: (§1) C/EBPα and PPARγ are essential, positive regulators of adipogenesis. […] Results were obtained using RT-PCR.
(§2) Gene expression levels of two key proteins that function in fat cell differentiation, C/EBPα and PPARγ, were measured over the first four days of differentiation.

C/EBPα = C/EBPα gene expression in 3T3L1 cells during adipocyte differentiation (RT-PCR); format: cell-based; conditions: 500 nM, first four days of differentiation
Method: as §1, §2

C57B/6 male mice = experiment: Insulin tolerance test in C57B/6 mice on high fat diet; format: in vivo, mouse
Method: FIG. 9B is a graph of the area under the curve (AUC) of the data in FIG. 9A.
8 week old C57B/6 male mice were started on a high fat diet containing 60% kcal fat. […] Body weight was measured every week. The mice were then examined for the degree of insulin resistance by insulin tolerance testing. […] Following insulin injection blood glucose was measured at the indicated time points.

ob/ob mice [4] = experiment: Liver and subcutaneous fat weight and liver H&E histology in ob/ob mice
Method: The sections were stained with hematoxylin and eosin.
Five week old Ob/ob mice were treated with either vehicle (control) or a chemical inhibitor of the BET protein family (JQ) for approximately two weeks. Following treatment the mice were euthanized and organs were harvested and weighed. The weight of the livers and subcutaneous fat were determined.

[5] = approximately two weeks of treatment

## Cc1sc2c(c1C)C(c1ccc(Cl)cc1)=N[C@@H](CC(=O)OC(C)(C)C)c1nnc(C(F)(F)F)n1-2 [JQ11]
[1]
  liver expression of ACC beta: reduced the expression
  liver expression of DGAT: reduced the expression
  liver expression of FAS: not statistically significant
  liver expression of PPARγ2: reduced the expression
  liver expression of SCD1: reduced the expression
  liver expression of SREBP: reduced the expression

## Cc1sc2c(c1C)C(c1ccc(Cl)cc1)=N[C@@H](CC(=O)NN)c1nnc(C)n1-2 [Compound 3]
[2]
  activity in at least one biological assay: showed activity

## Cc1sc2c(c1C)C(c1ccc(Cl)cc1)=N[C@@H](CC(=O)N/N=C/c1ccc(O)cc1)c1nnc(C)n1-2 [Compound 4]
[2]
  activity in at least one biological assay: showed activity

## Cc1sc2c(c1C)C(c1ccc(Cl)cc1)=N[C@H](CC(=O)OC(C)(C)C)c1nnc(C)n1-2 [JQ (R) enantiomer]
3T3L1 cells
  adipogenesis / lipid accumulation (Oil Red O staining): no effect on the generation of lipid

## Cc1sc2c(c1C)C(c1ccc(Cl)cc1)=N[C@@H](CC(=O)OC(C)(C)C)c1nnc(C)n1-2 [JQ]
ob/ob mice [3]
  food intake: mildly inhibited
  weight gain: blocked weight gain
PPARγ
  induction of PPARγ expression: significantly blocked the induction
C/EBPα
  induction of C/EBPα expression: significantly blocked the induction
C57B/6 male mice; 7 weeks high fat diet and 50 mg/kg daily, 4 h fast, insulin 0.5 U/kg intraperitoneal
  blood glucose after insulin injection: sustained decrease in blood glucose up to 2 hours
C57B/6 male mice; 2 hour time course after insulin, p<0.05
  area under the curve for change in blood glucose: statistically significant decrease
ob/ob mice [4]; [5]
  liver weight: statistically significant reductions
  subcutaneous fat weight: statistically significant reductions
ob/ob mice [4]; two week treatment
  hepatic steatosis / liver histology (H&E): complete block in hepatic steatosis

## Cc1sc2c(c1C)C(c1ccc(Cl)cc1)=N[C@@H](CC(=O)OC(C)(C)C)c1nnc(C)n1-2 [JQ1 (S) enantiomer, (S)-tert-Butyl 2-(4-(4-chlorophenyl)-2,3,9-trimethyl-6H-thieno[3,2-f][1,2,4]triazolo[4,3-a][1,4]diazepin-6-yl)acetate]
3T3L1 cells
  adipogenesis / lipid accumulation (Oil Red O staining): inhibited lipid accumulation
3T3L1 cells; listed as JQ (S) enantiomer
  adipogenesis / lipid accumulation (Oil Red O staining): inhibited adipogenesis in a dose dependent manner

From patent US20130252331A1, “COMPOSITIONS AND METHODS FOR MODULATING METABOLISM” (priority 2010, published 2013)
